Experimental data published in patent US7781423B2, “Compounds to promote regeneration of bone marrow” (priority 2007, dated 2010).

How the values were obtained:
[1] = test system: lethally irradiated mice that received bone marrow transplantation; assay: Blood profile after bone marrow transplantation following lethal irradiation; assay type: in vivo, C57B1 mice; details: for Platelets / RBC / WBC: CCompound1 4.5 mg per kg i.p. daily, day -3 to day +3
Description: Twelve week old female C57B1 mice were used for the experiments. Each drug was administered intraperitoneally once a day for 5 consecutive days. In the second, third, fourth and fifth groups, mice were administered 120 mg/kg of cyclophosphamide (CP). In a third group, mice were also administered 4.5 mg/kg of CCompound1. In a fourth group, mice were also administered 4.5 mg/kg of CCompound3. In a fifth group, mice were also administered 2.0 mg/kg of CCompound26. In the first group, mice received no treatment. Each group included 5 animals. After 3 hours of the last treatments (on day 5), blood samples were collected from the ocular venous plexus of ether-anesthetized mice by retro-orbital venipuncture in heparanized tubes. Complete cell counts (RBC, red blood cell; WBC, white blood cell; PTL, platelet) were determined with a Sysmex F-800 hematology analyzer (To a Medical Electronics Co. LTD, Kobe, Japan). All data shown in Table 2 are the average of 5 independent determinations.
In this experiment the goal was to determine if CCompound1 can enhance expansion of transplanted bone marrow cells infused after applying a lethal dose of whole body irradiation (which reduces the number of bone marrow cells by more than 90%). C57B1 female mice (10-14 weeks old) were subjected to 900 cGy whole body irradiation from a ^137Cesium source which was followed within 6 hours by infusion of one million donor nucleated bone marrow cells by tail vein injection. Starting 3 days before irradiation, animals received daily 4.5 mg per kg of CCompound1 via intraperitoneal injection; this treatment also was provided on day 0 and once daily for the subsequent 3 days after irradiation. In another group, mice were injected only with physiological saline.
Bone marrow cells were collected on day 0 from non-irradiated animals as well as on days 6, 14, 28 and 42 after irradiation and bone marrow transplantation. Nucleated bone marrow cells were quantified and CFU-GM assay was performed as described in Example 3 while blood profiling was performed as described in Example 1. For each group, on the indicated days bone marrow and blood samples were collected from 3 animals. Each value presented in Table 5 and Table 6 represents the mean±st. dev. of 3 samples (derived from 3 animals).

[2] = test system: human bone marrow-derived mesenchymal stem cells; assay: Proliferation of mesenchymal stem cells in the presence of 2% serum (viable cell number); assay type: cell-based; details: 10 μM or 50 μM
Description: Bone marrow aspirates were taken from normal adult donors after an informed consent was signed. Bone marrow mesenchymal stem cells were prepared by a widely used technique as described earlier by others. Pittenger, M. F., Mackay, A. M., Beck, S. C., Jaiswal, R. K., Douglas, R., Mosca, J. D., Moorman, M. A., Simonetti, D. W., Craig, S. and Marshak, D. R., “Multilineage potential of adult human mesenchymal stem cells,” Science, 284, 143-147 (1999). […] When cells grew to about 80% confluence, they were suspended and harvested by incubating with a ready-made solution containing 0.25% trypsin and 1 mM EDTA (Sigma-Aldrich, St. Louis, Mo.) for 5 minutes at 37° C.; this cell suspension is designated as passage 1. […]
The total numbers of nucleated and viable cells were determined with a hemocytometer, using Turck's solution and trypan blue stain, respectively. […]
In the experiments reported in Table 7 and Table 8, human bone marrow-derived mesenchymal stem cells were split at 1:3 and then incubated for 24 hours in 10% fetal calf serum-containing medium to about 30-35% confluence. […] The data are expressed as mean values±std. dev. of 3 determinations.

[3] = after bone marrow transplantation
[4] = day 6 after 900 cGy irradiation and bone marrow transplantation
[5] = day 14 after 900 cGy irradiation and bone marrow transplantation
[6] = day 28 after 900 cGy irradiation and bone marrow transplantation
[7] = day 42 after 900 cGy irradiation and bone marrow transplantation

## Cc1c(OCC(O)C[N+](C)(C)C)cc2c(=O)c3ccccc3sc2c1C.[Cl-] (centres unmarked) [CCcompound1, [3-(3,4-Dimethyl-9-oxo-9H-thioxanthen-2-yloxy)-2-hydroxypropyl]trimethyl-ammonium chloride]
Solubility in water
  solubility in water: soluble in water
[1]; [3]
  time to recover platelet count similar to about 100,000 per 1 μl from transplanted bone marrow stem cells: less than 6 days
  time to recover white blood cell count similar to 2,500 per 1 μl from transplanted bone marrow stem cells: 9 to 11 days
[1]; after lethal irradiation and bone marrow transplantation
  time to about 50% recovery of white blood cells: about 14 days
[1]; [4]
  Platelets: 243 ± 19 ×10^3/mm^3
  RBC: 4.8 ± 1.2 ×10^6/mm^3
  WBC: 1.6 ± 0.3 ×10^3/mm^3
[1]; [5]
  Platelets: 438 ± 112 ×10^3/mm^3
  RBC: 9.1 ± 1.1 ×10^6/mm^3
  WBC: 3.3 ± 0.4 ×10^3/mm^3
[1]; [6]
  Platelets: 716 ± 138 ×10^3/mm^3
  RBC: 10.9 ± 1.3 ×10^6/mm^3
  WBC: 5.2 ± 0.8 ×10^3/mm^3
[1]; [7]
  Platelets: 776 ± 112 ×10^3/mm^3
  RBC: 11.0 ± 0.7 ×10^6/mm^3
  WBC: 6.6 ± 0.4 ×10^3/mm^3
[2]
  effect on the proliferation of stem cells: no direct stimulatory effect
